Experimental data: patent US20210253511A1, “COMPOUNDS AND USES FOR THE TREATMENT AND PREVENTION OF DISEASES AND CONDITIONS ASSOCIATE WITH OR AGGREVATED BY IMPARED MITOPHAGY” (Yissum Research Development Company of The Hebrew …, priority 2018, published 2021)
“Also recorded” adds a separate entry of the source.

Experiments:
[1] = tested on: C. elegans worms in 200 mM paraquat (PQ); assay: Paraquat survival assay; type: in vivo; conditions: 200 mM PQ
Procedure: C. elegans strains were grown at 21° C. on nematode growth media (NGM) agar plates containing diamines or vehicle as a control. The NGM agar plates were prepared as described in L. Livshits, E. Gross, A method for measuring sulfide toxicity in the nematode Caenorhabditis elegans, MethodsX 4 (2017) 250-255. A suspension of 3 g sodium chloride (NaCl), 20 g Bacto agar, and 2.5 g of Bacto peptone in 1 L of double distilled water (DDW) was mixed and autoclaved. Then, the medium was cooled to 55° C. and supplemented with 1 ml of 100 mM CaCl2), 1 ml of 100 mM MgSO4, 25 ml of 1 M potassium phosphate buffer pH 6, and 1 ml of 5 mg/ml cholesterol (the cholesterol was dissolved in ethanol). Diamines or DDW (vehicle) were added to the NGM-agar solution. For RNAi NGM-agar plates, Isopropyl β-D-1-thiogalactopyranoside (IPTG) and ampicillin were added to a final concentration of 1 mM and 100 μg/ml, respectively. The NGM-agar solution was thoroughly vortex mixed and immediately poured into 35 mm petri dish (4 ml per plate). NGM-plates were covered with aluminum foil and dried for 24 h at room temperature (RT). 24 h before the experiment, plates were seeded with 100 μl bacteria (OD600=0.6, OP50 or HT115(DE3)). The seeded plates were covered with aluminum foil and dried for 24 h at RT.
To get synchronized C. elegans larvae, the method described in W. B. Wood, The Nematode Caenorhabditis Elegans, Cold Spring Harbor Laboratory 1988, was performed. In brief, hypochlorite/NaOH solution was made by mixing 1 ml of 5% solution of sodium hypochlorite, 800 μl of 2.5 N NaOH and 2.2 ml DDW to final concentrations of 0.5 N NaOH and 1.25% sodium hypochlorite. M9 buffer was made by dissolving 3 g KH2PO4, 6 g Na2HPO4, 5 g NaCl and 1 ml of MgSO4 from 1M stock in 1 litter of DDW. The solution pH was adjusted to 7 and sterilizes by filtration (with a 0.2 µm filter bottle). Gravid hermaphrodites was washed from the NGM plates into a 15 ml tube with M9 buffer and centrifuged for 2 min at 900×g, RT. Liquid was removed until 2 ml worms' suspension was left and added 2 ml of hypochlorite/NaOH solution. A 5 ml syringe with a 21-gauge needle was used to aspirate the worm suspension back and forth several times. After 3 min it was observed the state of the worms using a dissecting stereoscope. At this stage, approximately 50% of worms should appear broken and many of the embryos should float in the solution. The embryos were immediately sedimented using centrifugation (1690×g for 2 min) and carefully removed the supernatant and add 10 ml of M9 buffer. This washing step was repeated three additional times. The supernatant was removed until 2 ml remains and rotated the tube for 16 h at RT. The hatched L larvae were collected by centrifugation (1690×g for 3 min) and put ˜80 L in each seeded NGM assay plate. Grow the L1 (Day 1) for 3 days until they become young adults (Day 3).

[2] = tested on: dct-1(tm376) mutants / dct-1 RNAi worms; assay: Paraquat survival assay in dct-1 deletion mutant or RNAi knockdown worms; type: in vivo, C. elegans
Procedure: (§1) FIGS. 9A-9D show the protective activity of 1,8-Diaminooctane is mitophagy-dependent. (FIG. 9A) is a schematic illustration of the mitophagy pathway in C. elegans. Survival curves presenting the effect of dct-1 and pink-1 deletion mutations (FIG. 9B, FIG. 9C) or RNAi knockdowns (FIG. 9D) on worms' viability in 200 mM PQ at indicated time points. Statistical analysis on PQ survival curves were performed using the log-rank (Mantel-Cox) test with Prism 7 software. The plots represent the average of six independent experiments. The minimum number of worms examined for each experimental condition is 133.
(§2) In the first one, the effect of 1,8-Diaminooctane on the survival of dct-1 and pink-1 mutants in PQ was investigated. DCT-1 is an orthologue of the mammalian NIX/BNIP3L and BNIP3 that act as mitophagy receptors, and PINK-1 is a mitochondrial phosphatase and tensin (PTEN)-induced kinase 1 which has a critical function in mitophagy (see K. Palikaras, E. Lionaki, N. Tavernarakis, Coordination of mitophagy and mitochondrial biogenesis during ageing in C. elegans, Nature 521 (7553) (2015) 525-8; and FIG. 3A). It was hypothesized that if mitophagy is essential for the protective effect of 1,8-Diaminooctane, then dct-1 and pink-1 mutants will become sensitive to PQ following treatment. […] The second experiment that was performed was an RNAi experiment. Here, dct-1 and pink-1 were selectively knocked down using RNAi. The RNAi results recapitulated the one of the mutant experiments ([…]). […] Importantly, the RNAi phenotype was less strong compared to the one observed with the deletion mutants. […] The difference between the results could be due to incomplete suppression of dct-1 and pink-1 in the RNAi treated worms. Together, our results verify that 1,8-Diaminooctane protects against oxidative stress by activating mitophagy.

[3] = tested on: pink-1(tm1779) mutants / pink-1 RNAi worms; assay: Paraquat survival assay in pink-1 deletion mutant or RNAi knockdown worms; type: in vivo, C. elegans
Procedure: as §1, §2

[4] = tested on: C. elegans; assay: Lifespan assay; type: in vivo; conditions: 4 mM from L1; 21° C.; control 12 days; p=0.0063
Procedure: FIG. 10. […] Survival curves comparing the lifespans of worm growing on plates containing 0.25 mM and 4 mM 1,8-Diaminooctane (or vehicle as a control). The curves represent data from at least three independent experiments in which the lifespans of at least 145 worms were measured (for each condition). The lifespan medians and p values are indicated in the parentheses near the treatment legend. All lifespan assays were conducted at 21° C. and started with synchronized L1 larvae. Statistical analysis on lifespan survival curves was performed using the log-rank (Mantel-Cox).
Lifespan assays were performed as described in R. Abergel, L. Livshits, M. Shaked, A. K. Chatterjee, E. Gross, Synergism between soluble guanylate cyclase signaling and neuropeptides extends lifespan in the nematode Caenorhabditis elegans, Aging cell 16 (2) (2017) 401-413. In brief, 12 worms per plate were used. […] Worm's survival was scored every two days for live, dead (when it no longer responded to touch), and missing worms. The worms were transferred into fresh plates every 2 days to avoid progeny contamination and every 4 days when worms are in post-fertile stage, until the end of the experiment. Worms were scored as censored when they display internal progeny hatching (worm bagging), rupture, burrow in the agar or crawl off the plates, however, include them in the lifespan data analysis as censored. […]

[5] = compared to control worms that did not get the treatment, p<0.0001
[6] = compared to treated wild-type worms, 200 mM PQ, p<0.0001
[7] = compared to worms treated with mock RNAi (empty vector)

NCCCCCCCCN [1,8-Diaminooctane]
survival of worms in paraquat ([1]; 0.0625, 0.25, 1 and 4 mM (all treatments), L1 to young adult (~48 h), vs distilled-water control, log-rank p<0.0001): increase the survival of worms significantly; also recorded: significantly increases the resistance to paraquat toxicity in a dose-dependent manner
survival of worms in paraquat ([1]; compound at 4 mM, vs control worms): best protection
survival of worms in paraquat ([1]; tested at 0.0625 mM and 0.25 mM, not split): significantly improved the survival of worms in PQ
survival in PQ of treated worms, RNAi against dct-1 [2, 5]: significantly higher than control worms
resistance to PQ after treatment, dct-1(tm376) mutants [2, 6]: significantly less resistant to PQ
protective effect in PQ, RNAi against dct-1 [2, 7]: significantly lesser
survival in PQ of treated worms, RNAi against pink-1 [3, 5]: significantly higher than control worms
resistance to PQ after treatment, pink-1(tm1779) mutants [3, 6]: significantly less resistant to PQ
protective effect in PQ, RNAi against pink-1 [3, 7]: significantly lesser
median lifespan [4]: 15 days
